“And” between values parts separate entries of the source, which are not always exact repeats. Identical values can stand only once.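 48-hour exposure; five concentrations; linearly interpolated endpoints. GI50 is the concentration that inhibits growth by half. TGI is the concentration that stops growth completely.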
Key:
Experiment in all cases: NCI-60 cell line screen, 48 h
COLO 205 colon = test system: COLO 205 colon
U251 CNS = test system: U251 CNS
HCC-2998 colon = test system: HCC-2998 colon
SK-MEL-2 melanoma = test system: SK-MEL-2 melanoma
MDA-MB-231 breast = test system: MDA-MB-231 breast
786-0 renal = test system: 786-0 renal
OVCAR-8 ovarian = test system: OVCAR-8 ovarian
HT29 colon = test system: HT29 colon
MDA-MB-435 = test system: MDA-MB-435
BT-549 breast = test system: BT-549 breast

| SMILES | GI50 (COLO 205 colon) | TGI (COLO 205 colon) | GI50 (U251 CNS) | TGI (U251 CNS) | GI50 (HCC-2998 colon) | TGI (HCC-2998 colon) | GI50 (SK-MEL-2 melanoma) | TGI (SK-MEL-2 melanoma) | GI50 (MDA-MB-231 breast) | TGI (MDA-MB-231 breast) | GI50 (786-0 renal) | TGI (786-0 renal) | GI50 (OVCAR-8 ovarian) | TGI (OVCAR-8 ovarian) | GI50 (HT29 colon) | TGI (HT29 colon) | GI50 (MDA-MB-435) | TGI (MDA-MB-435) | GI50 (BT-549 breast) | TGI (BT-549 breast) |
| --- | --- | --- | --- | --- | --- | --- | --- | --- | --- | --- | --- | --- | --- | --- | --- | --- | --- | --- | --- | --- |
| COc1ccc2c(c1)cn1c3ccc(O)cc3[nH]c(=O)c21 | 409 nM | 2.83 µM | 0.143 µM | 1.9 µM | 0.667 µM | 4.42 µM | 0.215 µM | 2.08 µM | 0.469 µM | 2.47 µM | 0.334 µM | 5.49 µM | 0.428 µM | 2.82 µM | 0.411 µM | 2.18 µM | 0.0252 µM | 0.171 µM | 2.73 µM | 19.2 µM |
| CCN(CC)CCOc1ccc2c(c1)C(=O)c1cc(OCCN(CC)CC)ccc1-2 | 2560 nM | 9.38 µM | 8.73 µM | 31.3 µM | 10 µM | 22.6 µM | 11.3 µM | 24.4 µM | 10.4 µM | 33.8 µM | 7.17 µM | 21.8 µM | 8 µM | 54 µM | 2.58 µM | 10.4 µM | 12.9 µM | 27.7 µM | 20.4 µM | 46.5 µM |
| COc1cc(NCc2ccccc2O)c2ncccc2c1 | 19700 nM | 77.2 µM | 23.7 µM | > 100 µM | 42.6 µM | > 100 µM | 18.1 µM | 50.3 µM | 14.3 µM | > 100 µM | 29.8 µM | > 100 µM | 25.4 µM | > 100 µM | 19.4 µM | 94.1 µM | 11.6 µM | 37.9 µM | 16.6 µM | 55 µM |
| COc1cc2cc(Oc3ccc(NC(=O)Nc4ccc(Cl)c(C(F)(F)F)c4)cc3)c(C)nc2cc1OC | 660 nM | 1.31 µM | 1.03 µM | 3.78 µM | 1.77 µM | 5.48 µM | 0.799 µM | 1.94 µM | 0.681 µM | 1.84 µM | 1.17 µM | 4.96 µM | 1.04 µM | 4.55 µM | 1.2 µM | 3.98 µM | 1.03 µM | 4.71 µM | 0.981 µM | 4.59 µM |
| C(=C\c1nccc2c1[nH]c1ccccc12)/c1ccccc1 | 1560 nM | 3.62 µM | 3.26 µM | 13.7 µM | 2.96 µM | 9.43 µM | 5.82 µM | 39.7 µM | 1.76 µM | 8.02 µM | 3.49 µM | 10.7 µM | 4.69 µM | > 100 µM | 3.07 µM | 11.9 µM | 0.356 µM | 1.81 µM | 2.22 µM | 10.2 µM |
| CC(O)C(O)C(O)C(/C=N\Nc1ccccc1)=N/Nc1ccccc1 (stereo not drawn) |  | 27.4 µM |  | 27.2 µM |  | 23.3 µM |  | 21.5 µM |  | 27.3 µM |  | 29.8 µM |  | 38.1 µM |  | 30.8 µM |  | 26.7 µM |  | 29.4 µM |
| COc1cc(-c2cc(/C=C3\C(=O)Nc4ccccc43)[nH]n2)cc(OC)c1OC | 2470 nM | 7.02 µM | 3.63 µM | 19.6 µM | 13.1 µM | 29.4 µM | 2.27 µM | 5.57 µM | 4.07 µM | 27.7 µM | 5.1 µM | 20.2 µM | 2.5 µM | 7.48 µM | 3.15 µM | 17.7 µM | 2.38 µM | 6.25 µM | 2.1 µM | 6.58 µM |
| Cc1cccc2c1O/C(=C\c1ccc([N+](=O)[O-])o1)C2=O | 660 nM | 2.14 µM | 1.44 µM | 2.89 µM | 1.34 µM | 3.91 µM | 1.76 µM | 3.52 µM | 1.21 µM | 3.61 µM | 1.8 µM | 4.27 µM | 0.941 µM | 7.93 µM | 0.324 µM | 1.27 µM | 1.02 µM | 2.46 µM | 1.28 µM | 2.63 µM |
| C/C1=C\C/C=C(\C)[C@H]2CC(CC/C(C)=C/CC1)[C@](C)(C=O)O2 | > 100000 nM | > 100 µM | 43.9 µM | > 100 µM | 49.8 µM | > 100 µM | > 100 µM | > 100 µM | > 100 µM | > 100 µM | > 100 µM | > 100 µM | > 100 µM | > 100 µM | > 100 µM | > 100 µM | 66.1 µM | > 100 µM | 20.9 µM | > 100 µM |
| O=C1C(=O)c2ccccc2C(O)=C1CC=C(Cl)Cl | 11400 nM and 11200 nM | 28.8 µM and > 85.5 µM and > 100 µM | 2.17 µM and 2.01 µM | > 85.8 µM and 138 µM and > 100 µM | 15.3 µM and 13.8 µM | > 80.9 µM and 133 µM and > 100 µM | 22.1 µM | 44.3 µM and 47.1 µM and 63.9 µM | 3.59 µM | > 52.8 µM and 119 µM and 56.2 µM | 4.63 µM and 13.4 µM | > 68.9 µM and 250 µM and > 100 µM | 6.49 µM and 4.81 µM | 206 µM and > 100 µM | 6.4 µM | 141 µM and > 100 µM | 5.7 µM and 7.43 µM | 29.2 µM and 109 µM and 80.6 µM | 16.3 µM and 27.1 µM | 94.6 µM and 139 µM and > 100 µM |
| [C-]#[N+][C@]12C(=O)[C@H](CCC1(C)C)C(C)(C)[C@H]1C(=O)N(C)c3cccc2c31 | 5060 nM | > 100 µM | 7.08 µM | > 100 µM | > 100 µM | > 100 µM | 30.6 µM | > 100 µM | > 100 µM | > 100 µM | > 100 µM | > 100 µM | 13.8 µM | > 100 µM | 17.6 µM | > 100 µM | 24.7 µM | > 100 µM | 46.2 µM | > 100 µM |
| CN1CCN(CCNc2ccc(CO)c3sc4ccccc4c(=O)c23)CC1 |  | 16.5 µM |  | 14.6 µM |  | 18.6 µM |  | 20.9 µM | 3.99 µM | 15.2 µM |  | 17.5 µM |  | 23.5 µM |  | 7.86 µM | 1.98 µM | 4.51 µM | 4.83 µM | 16.1 µM |

From PubChem BioAssay (NCI)
